Results on 2 compounds are retold here after ChEMBL document CHEMBL1133051, “Design and synthesis of a novel water soluble benzotetrazepinone” (Bioorg Med Chem Lett, 2000).

The test relates to MCF7. Description: Inhibitory concentration of compound against Mer+ breast tumor cell line MCF-7. To be noted: Homo sapiens. The test is classed as functional, cell-based.

Usually IC50 stands for the concentration needed to halve the response being measured. A low value points to greater potency in that assay. Consider `CN1N=Nc2cc(C(=O)NCCN3CCOCC3)ccc2N(C)C1=O`, for which the IC50 is 80 µM.
The figure for `Cn1nnc2c(C(N)=O)ncn2c1=O` [TEMOZOLOMIDE] is 800 µM.
